According to ChEMBL document CHEMBL4825674, “Phorbol Esters from the Latex of Euphorbia umbellata: Bioguided Isolation of Highly Potent HIV-1 Latency Interrupters in Virus Reservoir Cells” (2021):

Columns and labels:
[1] = test system: Human immunodeficiency virus 1; assay: Reactivation of HIV-1 latency infected in GFP-fused J-Lat 10.6 cells assessed as HIV-1 latency reactivation in reservoir cells at 0.088 to 8.85 uM incubated for 24 hrs flow cytometry analysis; assay type: functional; settings: dose 0.088-8.85 µM
MT4 = assay: Cytotoxicity against human MT4 cells assessed as cell viability at 1 ug/ml incubated for 24 hrs by CellTiter Blue viability assay; assay type: functional, cell-based; settings: dose 1.0 µg/ml
[2] = test system: Human immunodeficiency virus 1; assay: Reactivation of HIV-1 latency infected in GFP-fused J-Lat 10.6 cells assessed as HIV-1 latency reactivation in reservoir cells at 2.24 uM incubated for 24 hrs flow cytometry analysis; assay type: functional
[3] = Reduction in CD4 expression in human MT4 cells at 1.94 uM incubated for 24 hrs by flow cytometry analysis; assay type: functional; set-up: scale not given: the % may be the effect or the level left
[4] = Reduction in CD4 expression in human MT4 cells at 1.77 uM incubated for 24 hrs by flow cytometry analysis; assay type: functional; set-up: scale not given: the % may be the effect or the level left
[5] = Reduction in CD4 expression in human MT4 cells at 1.82 uM incubated for 24 hrs by flow cytometry analysis; assay type: functional; set-up: scale not given: the % may be the effect or the level left
[6] = test system: Human immunodeficiency virus 1; assay: Reactivation of HIV-1 latency infected in GFP-fused J-Lat 10.6 cells assessed as HIV-1 latency reactivation in reservoir cells at 0.097 to 9.7 uM incubated for 24 hrs flow cytometry analysis; assay type: functional; settings: dose 0.097-9.7 µM

For `C/C=C(/C)C(=O)O[C@@H]1[C@@H](C)[C@]2(O)[C@@H]3C=C(C)C(=O)[C@@]3(O)[C@H](O)C(C)=C[C@H]2[C@H]2C(C)(C)[C@]12OC(=O)Cc1ccccc1`, the Activity [1] was 70% and the Activity (MT4) was “Not toxic”.

`CCCCCC(=O)O[C@H]1C(C)=C[C@]23C(=O)[C@@H](C=C(CO)[C@@H](O)[C@]12O)[C@H]1[C@@H](C[C@H]3C)C1(C)C` showed an Activity [2] of 70%.

For `C/C=C(/C)C(=O)O[C@@H]1[C@@H](C)[C@]2(O)[C@@H]3C=C(C)C(=O)[C@@]3(O)[C@H](O)C(C)=C[C@H]2[C@H]2C(C)(C)[C@]12OC(=O)C(C)C`, the Activity [3] was 40%, the Activity [4] was 40% and the Activity [5] was 40%. The Activity [6] was 70% and the Activity (MT4) was “Not toxic”.
